Source: PMC10795032 (ACS Omega, 2024)

Experiments:
Format in all cases: cell-based, human
[1] = test system: LC3; assay: Western blot, LC3-I to LC3-II conversion; details: U87-MG, 24 h
[2] = test system: p-mTOR; assay: Western blot, phosphorylation of mTOR; details: U87-MG, 5 μM, 24 h
[3] = test system: U87-MG cells; details: 5 μM with 20 μM CQ, 24 h, CCK-8
[4] = test system: p62/SQSTM1; assay: Western blot, autophagic flux marker p62/SQSTM1; details: U87-MG, 5 μM, 24 h
[5] = test system: cleaved caspase-3; assay: Western blot, cleaved caspase-3; details: U87-MG, 5 μM, 24 h
[6] = test system: U87-MG cells; assay: Annexin V-FITC/PI flow cytometry apoptosis assay; details: 5 μM, 24 h
[7] = test system: pAKT; assay: Western blot, phosphorylation of AKT; details: U87-MG, 5 μM, 24 h

Structure (SMILES): COc1cc2ncnc(Nc3ccc(F)c(Cl)c3)c2cc1OCCCN1CCOCC1 [Gefitinib]
- conversion of LC3-II on co-incubation with CQ ([1]; 5 μM with 20 μM CQ): significantly increases
- conversion of LC3-I to LC3-II ([1]; 5 μM): able to induce autophagy
- phosphorylation of mTOR [2]: potent in inhibiting
- increase in cell death along with CQ compared with treated alone [3]: 2.09%
- expression of p62 [4]: partially downregulate
- cleaved caspase-3 expression [5]: cleaved caspase-3 expression can be seen
- apoptosis rate (Annexin-V-positive cells) [6]: 44.16%
- phosphorylation of AKT [7]: potent in inhibiting
